Experimental data: PMC12777510 (Chempluschem, 2025)
Converted amounts (≈) assume the structure as drawn. Read-outs that look alike come from different tables or passages of the source. *1 amine or outer side, *2 acyl side, *3 side chain or, on linkers, in order; H or OH if unused. Where a SMILES comes first, the peptide text is derived from it. [ ]: non-standard residue; d: D form. X2 = O=C([C@@H](Cc1cc(C(F)(F)F)c(O)c(C(F)(F)F)c1)N[*:1])[*:2]; Aminotetradecanoyl(3R) = CCCCCCCCCCC[C@H](CC(=O)[*:2])N[*:1]; dTyr(3-CF3) = N[C@H](Cc1ccc(O)c(C(F)(F)F)c1)C(=O)O; X1 = O=C(C[C@@H](CCCCCCCCCCC(F)(F)F)N[*:1])[*:2]

Legend:
Candida albicans [1] = assay: microbe, parasite or virus in culture; conditions: 24 h, pH 7, read-out: MIC C. albicans
Fusarium graminearum [2] = assay: microbe, parasite or virus in culture; conditions: 48 h, pH 7, read-out: MIC F. graminearum
Fusarium graminearum [3] = conditions: broth microdilution, RPMI 1640 pH 7, 96-well plates, 28 °C for 48 h, no agitation, visual read-out, lowest concentration with complete inhibition of growth; DMSO max 2.5% v/v; triplicate
Candida albicans [4] = conditions: for MIC C. albicans: 24 h, pH 7
[5] = 19F NMR samples in D2O containing Saboraud Dextrose Broth (30 g/L), 5% d6-DMSO added to avoid precipitation
[6] = HPLC retention times compared to parent iturin A2, result in words

Compound	MIC (Candida albicans [1]) [µM]	MIC (Fusarium graminearum [2]) [µM]	MIC F. graminearum (Fusarium graminearum [3]) [µM]	change in bioactivity against C. albicans compared to iturin A2 (Candida albicans [4])	MIC C. albicans (Candida albicans [4]) [µM]	aqueous solubility [5] [µM]	relative lipophilicity (hydrophobicity) by HPLC retention, compared to the natural lipopeptide [6]	relative lipophilicity (hydrophobicity) by HPLC retention, compared to the natural lipopeptide ([6]; listed as o‐CF3‐Tyr)
C[C@@H]1[C@H](O)[C@@H](C)/C=C/C=C/C=C/C=C/C=C/C=C/C=C/[C@H](O[C@@H]2O[C@H](C)[C@@H](O)[C@H](N)[C@@H]2O)C[C@@H]2O[C@](O)(C[C@@H](O)C[C@@H](O)[C@H](O)CC[C@@H](O)C[C@@H](O)CC(=O)O[C@H]1C)C[C@H](O)[C@H]2C(=O)O [Amphotericin B]	2 (≈ 1.85 µg/mL)	4 (≈ 3.7 µg/mL)						
NC(=O)CC[C@@H]1NC(=O)[C@@H](CC(N)=O)NC(=O)[C@@H](Cc2ccc(O)cc2)NC(=O)[C@H](CC(N)=O)NC(=O)C[C@@H](CCCCCCCCCCC(F)(F)F)NC(=O)[C@H](CO)NC(=O)[C@@H](CC(N)=O)NC(=O)[C@@H]2CCCN2C1=O [Compound 9, ω‐CF3 iturin A2] (cyclo(N[dY][dN]QP[dN]S[X1]))			64 (≈ 70.2 µg/mL)	completely retains the bioactivity	64 (≈ 70.2 µg/mL)			
CCCCCCCCCCC[C@@H]1CC(=O)N[C@@H](CC(N)=O)C(=O)N[C@H](Cc2ccc(O)c(C(F)(F)F)c2)C(=O)N[C@H](CC(N)=O)C(=O)N[C@@H](CCC(N)=O)C(=O)N2CCC[C@H]2C(=O)N[C@H](CC(N)=O)C(=O)N[C@@H](CO)C(=O)N1 [Compound 10, o‐CF3‐Tyr iturin A2] (cyclo(N[dTyr(3-CF3)][dN]QP[dN]S[Aminotetradecanoyl(3R)]))			128 (≈ 142 µg/mL)		128 (≈ 142 µg/mL)	50 (≈ 55.6 µg/mL)	pronounced increase in lipophilicity	increased proportionally to the increase in fluorine content
CCCCCCCCCCC[C@@H]1CC(=O)N[C@@H](CC(N)=O)C(=O)N[C@H](Cc2cc(C(F)(F)F)c(O)c(C(F)(F)F)c2)C(=O)N[C@H](CC(N)=O)C(=O)N[C@@H](CCC(N)=O)C(=O)N2CCC[C@H]2C(=O)N[C@H](CC(N)=O)C(=O)N[C@@H](CO)C(=O)N1 [Compound 11, di‐o‐CF3‐Tyr iturin A2] (cyclo(N[X2][dN]QP[dN]S[Aminotetradecanoyl(3R)]))			>128		>128		increased proportionally to the increase in fluorine content	
CCCCCCCCCCC[C@@H]1CC(=O)N[C@@H](CC(N)=O)C(=O)N[C@H](Cc2ccc(O)cc2)C(=O)N[C@H](CC(N)=O)C(=O)N[C@@H](CCC(N)=O)C(=O)N2CCC[C@H]2C(=O)N[C@H](CC(N)=O)C(=O)N[C@@H](CO)C(=O)N1 [Synthetic iturin A2, iturin A2, reference compound] (cyclo(N[dY][dN]QP[dN]S[Aminotetradecanoyl(3R)]))			16 (≈ 16.7 µg/mL)		64 (≈ 66.8 µg/mL)			
